Measured values reported in patent publication US10414775B2 (Merck Sharp & Dohme Corp., priority 2016, dated 2019).

Biological target: T1, Human CYP8B1 (Homo sapiens, UniProt Q9UNU6)
T1 construct: tissue Xenotech; host or cells: human liver microsomes
T1 sequence (Q9UNU6 1-501): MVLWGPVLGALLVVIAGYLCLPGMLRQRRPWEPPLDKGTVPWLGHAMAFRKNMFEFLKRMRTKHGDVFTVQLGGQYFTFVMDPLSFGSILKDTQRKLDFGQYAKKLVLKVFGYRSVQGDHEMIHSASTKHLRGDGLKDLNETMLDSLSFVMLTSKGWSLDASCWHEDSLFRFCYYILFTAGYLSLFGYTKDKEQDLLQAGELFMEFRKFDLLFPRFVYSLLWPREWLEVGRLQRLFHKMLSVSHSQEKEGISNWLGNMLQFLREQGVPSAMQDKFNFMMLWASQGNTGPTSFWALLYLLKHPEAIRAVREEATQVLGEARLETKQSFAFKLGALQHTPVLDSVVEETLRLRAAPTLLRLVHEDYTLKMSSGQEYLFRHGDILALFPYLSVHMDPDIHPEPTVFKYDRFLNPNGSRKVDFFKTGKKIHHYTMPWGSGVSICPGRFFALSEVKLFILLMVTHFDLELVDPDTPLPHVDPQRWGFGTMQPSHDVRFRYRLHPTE
Test: Human Cyp8B1 Liver Microsome Assay
Type: biochemical
Conditions: human liver microsomes; substrate 7α-hydroxy-4-cholesten-3-one, NADPH; 30 min pre-incubation, 45 min reaction; RapidFire MS readout
In short: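 Human liver microsomes (65 μg/ml, 0.1 M phosphate pH 7.4) preincubated 30 min at room temperature with inhibitor (1.25% DMSO final), then reacted 45 min with 7α-hydroxy-4-cholesten-3-one and NADPH. 7α,12α-dihydroxy product quantified by RapidFire ESI+ MRM against d7 internal standard; IC50 from four-parameter logistic fit.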

Row | IC50 | Compound
1 | 0.31 nM | Cc1cnc2cc(C(C)(F)F)ccc2c1N1CC[C@H](C(=O)N2CCn3c(nnc3C(F)(F)F)C2)[C@H](C)C1 [Example 52, {(3S,4S)-1-[7-(1,1-difluoroethyl)-3-methylquinolin-4-yl]-3-methylpiperidin-4-yl}[3-(trifluoromethyl)-5,6-dihydro[1,2,4]triazolo[4,3-a]pyrazin-7(8H)-yl]methanone]
2 | 3.6 nM | C[C@@H]1CN(c2ccnc3cc(OCC4CC4)ccc23)CC[C@@H]1C(=O)N1CCn2c(nnc2C(F)(F)F)C1 [Example 53, {(3S,4S)-1-[7-(cyclopropylmethoxy)quinolin-4-yl]-3-methylpiperidin-4-yl}[3-(trifluoromethyl)-5,6-dihydro[1,2,4]triazolo[4,3-a]pyrazin-7(8H)-yl]methanone]
3 | 0.61 nM | C[C@@H]1CN(c2c(C(F)F)cnc3cc(C4CC4)ccc23)CC[C@@H]1C(=O)N1CCn2c(nnc2C(F)(F)F)C1 [Example 54, {(3S,4S)-1-[7-cyclopropyl-3-(difluoromethyl)quinolin-4-yl]-3-methylpiperidin-4-yl}[3-(trifluoromethyl)-5,6-dihydro[1,2,4]triazolo[4,3-a]pyrazin-7(81H)-yl]methanone]
4 | 0.2 nM | C[C@@H]1CN(c2c(Cl)cnc3cc(C(F)(F)F)ccc23)CC[C@@H]1C(=O)N1CCn2c(nnc2C(F)(F)F)C1 [Example 55, ((3S,4S)-1-(3-chloro-7-(trifluoromethyl)quinolin-4-yl)-3-methylpiperidin-4-yl)(3-(trifluoromethyl)-5,6-dihydro-[1,2,4]triazolo[4,3-a]pyrazin-7(8H)-yl)methanone]
5 | 0.46 nM | C[C@@H]1CN(c2c(F)cnc3cc(C(F)F)ccc23)CC[C@@H]1C(=O)N1CCn2c(nnc2C(F)(F)F)C1 [Example 56, ((3S,4S)-1-(7-(difluoromethyl)-3-fluoroquinolin-4-yl)-3-methylpiperidin-4-yl)(3-(trifluoromethyl)-5,6-dihydro-[1,2,4]triazolo[4,3-a]pyrazin-7(8H)-yl)methanone]
6 | 0.32 nM | C[C@@H]1CC(c2c(Cl)cnc3cc(C(F)F)ccc23)CCN1C(=O)N1CCn2c(nnc2C(F)(F)F)C1 (stereo partly drawn) [Example 57, ((2R)-4-(3-chloro-7-(difluoromethyl)quinolin-4-yl)-2-methylpiperidin-1-yl)(3-(trifluoromethyl)-5,6-dihydro-[1,2,4]triazolo [4,3-a]pyrazin-7(8H)-yl)methanone]
7 | 5.97 nM | C[C@@H]1CN(c2ccnc3cc(C(F)F)ccc23)CC[C@@H]1C(=O)N1CCn2c(nnc2C(F)(F)F)C1 [Example 58, ((3S,4S)-1-(7-(difluoromethyl)quinolin-4-yl)-3-methylpiperidin-4-yl)(3-(trifluoromethyl)-5,6-dihydro-[1,2,4]triazolo[4,3-a]pyrazin-7(8H)-yl)methanone]
8 | 8.2 nM | C[C@@H]1CN(c2ccnc3c2CCN(C(=O)OC(C)(C)C)C3)CC[C@@H]1C(=O)N1CCn2c(nnc2C(F)(F)F)C1 [Example 59, tert-butyl 4-((3S,4S)-3-methyl-4-(3-(trifluoromethyl)-5,6,7,8-tetrahydro-[1,2,4]triazolo[4,3-a]pyrazine-7-carbonyl)piperidin-1-yl)-5,6-dihydro-1,7-naphthyridine-7(8H)-carboxylate]
9 | 0.8 nM | C[C@@H]1CN(c2c(Cl)cnc3c2CCN(CC(F)(F)F)C3)CC[C@@H]1C(=O)N1CCn2c(nnc2C(F)(F)F)C1 [Example 60, ((3S,4S)-1-(3-chloro-7-(2,2,2-trifluoroethyl)-5,6,7,8-tetrahydro-1,7-naphthyridin-4-yl)-3-methylpiperidin-4-yl)(3-(trifluoromethyl)-5,6-dihydro-[1,2,4]triazolo[4,3-a]pyrazin-7(8H)-yl)methanone]
10 | 1 nM | C[C@@H]1CN(c2c(Cl)cnc3c2CCN(CC2CC2)C3)CC[C@@H]1C(=O)N1CCn2c(nnc2C(F)(F)F)C1 [Example 61, ((3S,4S)-1-(3-chloro-7-(cyclopropylmethyl)-5,6,7,8-tetrahydro-1,7-naphthyridin-4-yl)-3-methylpiperidin-4-yl)(3-(trifluoromethyl)-5,6-dihydro-[1,2,4]triazolo[4,3-a]pyrazin-7(8H)-yl)methanone]
